According to patent EP4768480A1, “ALKOXY THIOPHENE ACYL ARYLAMINE COMPOUNDS AND USE THEREOF” (priority 2024, dated 2025):

Target: T1, SMS2 (Homo sapiens, UniProt Q8NHU3)
T1 construct: CAO, Yu research team, National Protein Scientific Center (Shanghai); supplied by an outside laboratory, not a commercial vendor
T1 sequence (Q8NHU3 1-365): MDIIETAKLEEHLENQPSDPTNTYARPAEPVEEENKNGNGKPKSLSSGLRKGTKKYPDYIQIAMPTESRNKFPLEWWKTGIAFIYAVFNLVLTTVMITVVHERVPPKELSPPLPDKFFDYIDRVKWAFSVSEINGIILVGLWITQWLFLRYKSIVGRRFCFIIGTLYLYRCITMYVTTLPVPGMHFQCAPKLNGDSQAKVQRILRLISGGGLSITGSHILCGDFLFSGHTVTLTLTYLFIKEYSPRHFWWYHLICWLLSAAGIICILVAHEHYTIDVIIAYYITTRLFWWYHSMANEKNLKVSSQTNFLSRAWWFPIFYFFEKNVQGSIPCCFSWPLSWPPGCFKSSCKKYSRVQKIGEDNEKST
Assay: SMS2 inhibitory activity in vitro, HPLC fluorescence quantitative detection (C6-NBD-ceramide to C6-NBD-SM)
Type: biochemical
Details: 1 µM test compound; SMS2 pure enzyme; 37°C, 30 minutes; average of two measurements; read-out: Inhibition rate on SMS2 at C/µM 1
Description: • 1. Electro-thermostatic water bath, from Shanghai Yiheng Technology Co., Ltd.); • 2. Vortex Mixer, with model ID of XW-80A, from Shanghai Jingke Industrial Co., Ltd.; • 3. […] High Performance Liquid Chromatography Agilent 1100, equipped with a quaternary pump, vacuum degassing, and FLD fluorescence detector, from Agilent Technologies, Palo Alto, CA, USA; • 5. HPLC column COSMOSIL 5C18-MS-II (4.6mm I.D. X 250mm); • 6. […] The organic solvents used in the present disclosure were purchased from Shanghai National Reagent Company, wherein methanol was pure chromatography; water was ultra-pure water which is filtrated by Milli-Q pump, deionized and ultra-filtrated with 0.22 µm membrane; and other biological consumables were purchased from domestic companies; • 8. Preparation of test compound solutions: each test compound was accurately weighed and dissolved in an appropriate volume of DMSO to prepare a 10 mmol/L stock solution. The stock solution was then diluted with an appropriate volume of DMSO to achieve the desired working concentration; • 9. SMS2 pure enzyme, DDM solution and buffer solution were provided by CAO, Yu research team from National Protein Scientific Center (Shanghai).
79 µl of the diluted enzyme solution were transferred into a 1.5 mL EP tube, 1 µl of inhibitor DMSO solution were added thereto, vortexing for 15 seconds, followed by standing at room temperature for 5 minutes. 20 µl of a mixed solution of DMPC and C6-NBD-ceramide were added, vortexing for 15 seconds, and incubated at 37°C for 30 minutes. 200 µl of anhydrous ethanol were added to quench the reaction, vortexing for 15 seconds. 200 µl of the reaction solution were taken out and stored at 4°C and avoided light for HPLC detection.
The peak area values of A(sm) and A(ceramide) in the HPLC chromatogram corresponding to C6-NBD-SM and C6-NBD-Ceramide in the DMSO group and inhibitor group samples were analyzed and recorded, and the inhibition rate of the test compound was calculated according to the following formula. Inhibition rate = (Peak area values of DMSO group−Peak area values of Inhibitor group)/(Peak area values of DMSO group) × 100% [formula]

In order of rising inhibition at 1 µM:
1. O=C(Nc1nncs1)c1sccc1OCc1ccccc1 [12-3, 3-benzyloxy-N-(1,3,4-thiadiazol-2-yl)thiophene-2-carboxamide]  -8%
2. Cc1ccc(NC(=O)c2sccc2OCc2ccccc2)cn1 [12-12]  7%
3. O=C(Nc1cc(Cl)cc(Cl)n1)c1sccc1OCc1ccccc1 [1-20, 3-benzyloxy-N-(4,6-Dichloropyridin-2-yl)thiophene-2-carboxamide]  50%
4. O=C(Nc1cncc(F)c1)c1sccc1OCc1ccccc1 [1-92, 3-benzyloxy-N-(5-fluoropyridin-3-yl)thiophene-2-carboxamide]  50%
5. O=C(Nc1cccnc1)c1sccc1OCc1ccccc1-c1ccccc1 [1-94, 3-[(1,1'-Biphenyl-2-yl)methoxy]-N-(pyridin-3-yl)thiophene-2-carboxamide]  52%
6. CCc1ccccc1COc1ccccc1C(=O)Nc1cccnc1 [12-1 (LY93), 2-(2-ethylbenzyloxy)-N-(pyridin-3-yl)benzamide, reference compound]  66%
7. O=C(Nc1cccnc1)c1sccc1OCc1cccc2cccnc12 [1-12, N-(pyridin-3-yl)-3-(quinolin-8-ylmethoxy)thiophene-2-carboxamide]  68%
8. COc1cccc(COc2ccsc2C(=O)Nc2cccnc2)c1 [1-58, 3-(3-methoxybenzyloxy)-N-(pyridin-3-yl)thiophene-2-carboxamide]  70%
9. O=C(Nc1cccnc1)c1sccc1OCc1ccccc1C(F)(F)F [1-59, 3-(2-(trifluoromethyl)benzyloxy)-N-(pyridin-3-yl)thiophene-2-carboxamide]  71%
10. Cc1ccccc1COc1ccsc1C(=O)Nc1cccnc1 [1-41, 3-(2-methylbenzyloxy)-N-(pyridin-3-yl)thiophene-2-carboxamide]  72%
11. O=C(Nc1cccnc1)c1sccc1OCc1cc(Cl)ccc1Cl [1-89, 3-(2,5-dichlorobenzyloxy)-N-(pyridin-3-yl)thiophene-2-carboxamide]  74%
12. Cc1ccc(F)cc1COc1ccsc1C(=O)Nc1cccnc1 [1-88, 3-(5-fluoro-2-methylbenzyloxy)-N-(pyridin-3-yl)thiophene-2-carboxamide]  76%
13. Cc1cccc(C)c1COc1ccsc1C(=O)Nc1cccnc1 [1-60, 3-(2,6-dimethylbenzyloxy)-N-(pyridin-3-yl)thiophene-2-carboxamide]  78%
14. COc1cccc(Cl)c1COc1ccsc1C(=O)Nc1cccnc1 [1-63, 3-(2-chloro-6-methoxybenzyloxy)-N-(pyridin-3-yl)thiophene-2-carboxamide]  80%
15. CC(C)Oc1ccccc1COc1ccsc1C(=O)Nc1cccnc1 [1-82, 3-(2-isopropoxybenzyloxy)-N-(pyridin-3-yl)thiophene-2-carboxamide]  80%
16. O=C(Nc1cccnc1)c1sccc1OCc1ccccc1Br [1-86, 3-(2-bromobenzyloxy)-N-(pyridin-3-yl)thiophene-2-carboxamide]  86%
17. O=C(Nc1cccnc1)c1sccc1OCc1csc2ccccc12 [1-66, 3-(benzo[b]thiophen-3-ylmethoxy)-N-(pyridin-3-yl)thiophene-2-carboxamide]  86%
18. O=C(Nc1cccnc1)c1sccc1OCc1ccccc1OC(F)(F)F [1-53, 3-(2-(trifluoromethoxy)benzyloxy)-N-(pyridin-3-yl)thiophene-2-carboxamide]  87%
19. CCCCCCCOc1cc(Cl)ccc1COc1ccsc1C(=O)Nc1cccnc1 [1-72, 3-(4-chloro-2-(heptyloxy)benzyloxy)-N-(pyridin-3-yl)thiophene-2-carboxamide]  90%
20. O=C(Nc1cccnc1)c1sccc1OCc1ccccc1OCCc1ccccc1 [1-70, 3-(2-(phenylethoxy)benzyloxy)-N-(pyridin-3-yl)thiophene-2-carboxamide]  95%
21. CCCCCCOc1cc(Cl)ccc1COc1ccsc1C(=O)Nc1cccnc1 [1-71, 3-(4-chloro-2-(hexyloxy)benzyloxy)-N-(pyridin-3-yl)thiophene-2-carboxamide]  95%
22. CCCCCCOc1c(Cl)cccc1COc1ccsc1C(=O)Nc1cccnc1 [1-80, 3-(3-chloro-2-(hexyloxy)benzyloxy)-N-(pyridin-3-yl)thiophene-2-carboxamide]  97%

Same assay, conditions: 10 µM test compound; SMS2 pure enzyme; 37°C, 30 minutes; average of two measurements; read-out: Inhibition rate on SMS2 at C/µM 10

In order of falling inhibition at 10 µM:
1. O=C(Nc1cccnc1)c1sccc1OCc1c(Cl)cccc1Cl [1-3, 3-(2,6-dichlorobenzyloxy)-N-(pyridin-3-yl)thiophene-2-carboxamide]  97%
2. O=C(Nc1cccnc1)c1sccc1OCc1cccc2c1Oc1c(F)c(F)c(F)c(F)c1O2 [1-19, N-(pyridin-3-yl)-3-[(6,7,8,9-tetrafluorodibenzo[b,e][1,4]dioxin-1-yl)methoxy]thiophene-2-carboxamide]  77%
3. N#Cc1ccccc1COc1ccsc1C(=O)Nc1cccnc1 [1-50, 3-(2-cyanobenzyloxy)-N-(pyridin-3-yl)thiophene-2-carboxamide]  66%
4. O=C(Nc1cccnn1)c1sccc1OCc1ccccc1 [1-4, 3-benzyloxy-N-(pyridazin-3-yl)thiophene-2-carboxamide]  63%
5. O=C(Nc1cccnc1)c1sccc1OCC12CC3CC(CC(C3)C1)C2 [1-99, 3-(adamantan-1-ylmethoxy)-N-(pyridin-3-yl)thiophene-2-carboxamide]  62%
6. O=C(Nc1cncs1)c1sccc1OCc1ccccc1 [1-65, 3-benzyloxy-N-(thiazol-5-yl)thiophene-2-carboxamide]  61%
7. N#Cc1cccc(COc2ccsc2C(=O)Nc2cccnc2)c1 [1-51, 3-(3-cyanobenzyloxy)-N-(pyridin-3-yl)thiophene-2-carboxamide]  60%
8. O=C(Nc1cccnc1)c1sccc1OCc1ccsc1 [1-78, 3-(thiophen-3-ylmethoxy)-N-(pyridin-3-yl)thiophene-2-carboxamide]  59%
9. O=C(Nc1cncnc1)c1sccc1OCc1ccccc1 [1-64, 3-benzyloxy-N-(pyrimidin-5-yl)thiophene-2-carboxamide]  51%
10. O=C(Nc1ccccn1)c1sccc1OCc1ccccc1 [1-61, 3-benzyloxy-N-(pyridin-2-yl)thiophene-2-carboxamide]  50%
11. CCCOc1ccc(OCCC)c(COc2ccsc2C(=O)Nc2cccnc2)c1 [1-93, 3-(2,5-dipropoxybenzyloxy)-N-(pyridin-3-yl)thiophene-2-carboxamide]  50%
12. O=C(Nc1cc(Cl)ccn1)c1sccc1OCc1ccccc1 [1-6, 3-benzyloxy-N-(4-chloropyridin-2-yl)thiophene-2-carboxamide]  50%
13. CCCCOc1ccsc1C(=O)Nc1cccnc1 [1-95]  50%
14. Cc1ccc(COc2ccsc2C(=O)Nc2cccnc2)cc1 [1-42, 3-(4-methylbenzyloxy)-N-(pyridin-3-yl)thiophene-2-carboxamide]  50%
15. N#Cc1ccc(COc2ccsc2C(=O)Nc2cccnc2)cc1 [1-52, 3-(4-cyanobenzyloxy)-N-(pyridin-3-yl)thiophene-2-carboxamide]  50%
16. O=C(Nc1ccccc1)c1sccc1OCc1ccccc1 [1-7, 3-benzyloxy-N-phenylthiophen-2-carboxamide]  50%
17. O=C(Nc1cccc(O)n1)c1sccc1OCc1ccccc1 [1-9, 3-benzyloxy-N-(6-hydroxypyridine-2-yl)thiophene-2-carboxamide]  50%
18. O=C(Nc1cccnc1)c1cncnc1OCc1ccccc1 [12-19, 4-benzyloxy-N-(pyridin-3-yl)pyrimidin-5-carboxamide]  18%
19. O=C(Nc1cccnc1)c1cnccc1OCc1ccccc1 [12-16, 4-benzyloxy-N-(pyridin-3-yl)pyridin-3-carboxamide]  17%
20. O=C(Nc1cccnc1)c1sccc1OCc1ccccc1N1C(=O)c2ccccc2C1=O [12-5, 3-(2-(1,3-dioxoisoindolin-2-yl)benzyloxy)-N-(pyridin-3-yl)thiophene-2-carboxamide]  4%

Same assay, conditions: SMS2 pure enzyme

Work on CCc1ccccc1COc1ccccc1C(=O)Nc1cccnc1 [12-1 (LY93), 2-(2-ethylbenzyloxy)-N-(pyridin-3-yl)benzamide, reference compound] yielded an IC50 of 285 nM.
